Results: US7226892B2, “Herbicidal composition and use” (Durga Technologies ApS, priority 2003, dated 2007)

What was measured:
[1] = respiratory tract/lungs, eyes, skin; cited from earlier work
[2] = test system: mixed vegetation of grasses and weeds; assay: Spraying of glycine solution onto mixed vegetation; assay type: in vivo; conditions: glycine alone, summary statement
Source text: A common squirt bottle delivering a fine spray was used for spraying the weeds.
A solution of 90 g of glycine+15 g of the surfactant “Witconol® SN 90” in 1 L of water was sprayed onto a mixed vegetation of grasses and weeds until the spray liquid dripped from the leaves, corresponding to 0.1 L/m^2.

SMILES	risk identification / classification as irritant [1]	herbicidal activity of glycine per se [2]
NCC(=O)O [glycine, 2-aminoethanoic acid]	not classified as an irritant	no noticeable herbicidal activity
O=C(O)CC(O)(CC(=O)O)C(=O)O [citric acid, Citric Acid Monohydrate, reference compound]	Irritates respiratory tract/lungs, irritates eyes, skin irritating	–
